Legend:
Format in all cases: cell-based, human
MCF7 = assay: NCI growth inhibition, MCF7 (Breast); conditions: MCF7, Breast
TK-10 = assay: NCI growth inhibition, TK-10 (Renal); conditions: TK-10, Renal
KM12 = assay: NCI growth inhibition, KM12 (Colon); conditions: KM12, Colon
786-0 = assay: NCI growth inhibition, 786-0 (Renal); conditions: 786-0, Renal
MALME-3M = assay: NCI growth inhibition, MALME-3M (Melanoma)
HCT-116 = assay: NCI growth inhibition, HCT-116 (Colon); conditions: HCT-116, Colon
PC-3 = assay: NCI growth inhibition, PC-3 (Prostate); conditions: PC-3, Prostate
MOLT-4 = assay: NCI growth inhibition, MOLT-4 (Leukemia); conditions: MOLT-4, Leukemia
UACC-62 = assay: NCI growth inhibition, UACC-62 (Melanoma); conditions: UACC-62, Melanoma
BT-549 = assay: NCI growth inhibition, BT-549 (Breast); conditions: BT-549, Breast
LOX IMVI = assay: NCI growth inhibition, LOX IMVI (Melanoma); conditions: Melanoma
MI4 = assay: NCI growth inhibition, MI4 (Melanoma); conditions: MI4, Melanoma
IGROVI = assay: NCI growth inhibition, IGROVI (Ovarian); conditions: Ovarian
NCI-H522 = assay: NCI growth inhibition, NCI-H522 (NSC Lung)
SNB-19 = assay: NCI growth inhibition, SNB-19 (CNS); conditions: SNB-19, CNS
OVCAR-5 = assay: NCI growth inhibition, OVCAR-5 (Ovarian); conditions: OVCAR-5, Ovarian
HL-60(TB) = test system: HL-60(TB)
SF-295 = assay: NCI growth inhibition, SF-295 (CNS); conditions: SF-295, CNS
MDA-MB-231/ATCC = assay: NCI growth inhibition, MDA-MB-231/ATCC (Breast); conditions: Breast
NCI-H226 = assay: NCI growth inhibition, NCI-H226 (NSC Lung)
SK-MEL-2 = assay: NCI growth inhibition, SK-MEL-2 (Melanoma); conditions: SK-MEL-2, Melanoma
EKVX = assay: NCI growth inhibition, EKVX (NSC Lung); conditions: NSC Lung
CCRF-CEM = assay: NCI growth inhibition, CCRF-CEM (Leukemia); conditions: Leukemia
DU-145 = assay: NCI growth inhibition, DU-145 (Prostate); conditions: DU-145, Prostate
SNB-75 = assay: NCI growth inhibition, SNB-75 (CNS); conditions: SNB-75, CNS
HT29 = assay: NCI growth inhibition, HT29 (Colon); conditions: HT29, Colon
T-47D = assay: NCI growth inhibition, T-47D (Breast); conditions: Breast
SK-MEL-5 = assay: NCI growth inhibition, SK-MEL-5 (Melanoma); conditions: SK-MEL-5, Melanoma
SF-539 = assay: NCI growth inhibition, SF-539 (CNS); conditions: SF-539, CNS
NCI/ADR-RES = assay: NCI growth inhibition, NCI/ADR-RES (Breast)
A549/ATCC = assay: NCI growth inhibition, A549/ATCC (NSC Lung); conditions: NSC Lung
UO-31 = assay: NCI growth inhibition, UO-31 (Renal); conditions: UO-31, Renal
ACHN = assay: NCI growth inhibition, ACHN (Renal); conditions: Renal
SR = assay: NCI growth inhibition, SR (Leukemia); conditions: Leukemia
HCT-15 = assay: NCI growth inhibition, HCT-15 (Colon)
COLO 205 = assay: NCI growth inhibition, COLO 205 (Colon); conditions: COLO 205, Colon
OVCAR-4 = assay: NCI growth inhibition, OVCAR-4 (Ovarian); conditions: OVCAR-4, Ovarian
SN12C = assay: NCI growth inhibition, SN12C (Renal); conditions: Renal
K-562 = assay: NCI growth inhibition, K-562 (Leukemia); conditions: K-562, Leukemia
SF-268 = assay: NCI growth inhibition, SF-268 (CNS); conditions: SF-268, CNS
MDA-N = assay: NCI growth inhibition, MDA-N (Breast)
HOP-62 = assay: NCI growth inhibition, HOP-62 (NSC Lung)
OVCAR-3 = assay: NCI growth inhibition, OVCAR-3 (Ovarian); conditions: OVCAR-3, Ovarian
OVCAR-8 = assay: NCI growth inhibition, OVCAR-8 (Ovarian); conditions: OVCAR-8, Ovarian
UACC-257 = assay: NCI growth inhibition, UACC-257 (Melanoma); conditions: UACC-257, Melanoma
A498 = assay: NCI growth inhibition, A498 (Renal); conditions: A498, Renal
MDA-MB-435 = assay: NCI growth inhibition, MDA-MB-435 (Breast); conditions: MDA-MB-435, Breast
HCC-2998 = assay: NCI growth inhibition, HCC-2998 (Colon); conditions: HCC-2998, Colon
SK-OV-3 = assay: NCI growth inhibition, SK-OV-3 (Ovarian); conditions: SK-OV-3, Ovarian
NCI-H23 = assay: NCI growth inhibition, NCI-H23 (NSC Lung)
HOP-92 = assay: NCI growth inhibition, HOP-92 (NSC Lung); conditions: HOP-92, NSC Lung
HS 578T = assay: NCI growth inhibition, HS 578T (Breast); conditions: Breast
U251 = assay: NCI growth inhibition, U251 (CNS); conditions: U251, CNS
NCI-H322M = assay: NCI growth inhibition, NCI-H322M (NSC Lung); conditions: NSC Lung
CAKI-1 = assay: NCI growth inhibition, CAKI-1 (Renal); conditions: CAKI-1, Renal
SW-620 = assay: NCI growth inhibition, SW-620 (Colon); conditions: SW-620, Colon
RXF-393 = assay: NCI growth inhibition, RXF-393 (Renal)
RPMI-8226 = assay: NCI growth inhibition, RPMI-8226 (Leukemia); conditions: RPMI-8226, Leukemia
SK-MEL-28 = assay: NCI growth inhibition, SK-MEL-28 (Melanoma); conditions: SK-MEL-28, Melanoma
NCI-H460 = assay: NCI growth inhibition, NCI-H460 (NSC Lung); conditions: NCI-H460, NSC Lung

Measured: GI50

CCC/C=C/C=C/C(=O)O[C@H]1/C(=C/C(=O)OC)C[C@H]2C[C@H]([C@@H](C)O)OC(=O)C[C@H](O)C[C@@H]3C[C@H](OC(C)=O)C(C)(C)[C@](O)(C[C@@H]4C/C(=C/C(=O)OC)C[C@H](/C=C/C(C)(C)[C@]1(O)O2)O4)O3 [Bryo-1, Bryostatin-1, reference compound]
−5.40 log of molar concentration: COLO 205 | K-562 | CAKI-1
−5.20 log of molar concentration: MCF7 | KM12 | 786-0 | MALME-3M | SF-295 | MDA-MB-231/ATCC | SK-MEL-2 | T-47D | A549/ATCC
−5.70 log of molar concentration: HL-60(TB) | SK-MEL-5
−6.00 log of molar concentration: NCI-H322M
−5.10 log of molar concentration: BT-549 | LOX IMVI | SN12C | SF-268 | MDA-N | OVCAR-3 | OVCAR-8 | UACC-257 | MDA-MB-435 | SK-OV-3 | U251 | SK-MEL-28
−5.50 log of molar concentration: MOLT-4 | SNB-75 | ACHN | OVCAR-4 | SW-620
−5.60 log of molar concentration: UO-31 | NCI-H460
−5.2 log of molar concentration: HS 578T
−5.30 log of molar concentration: HCT-116 | PC-3 | UACC-62 | IGROVI | EKVX | CCRF-CEM | HT29 | HCC-2998 | HOP-92 | RXF-393
>−5 log of molar concentration: all other assays above
